From publication PMC3365038, “Optimization of a Novel Peptide Ligand Targeting Human Carbonic Anhydrase IX” (PLoS ONE, 2012)
Like-named read-outs stand apart in the source and are kept apart here. Peptide text beside a SMILES is read from it.

Assays:
[1] = tested on: CA IX positive human renal cell carcinoma SKRC 52 cells; test: In vitro binding of 125I-labeled peptides on SKRC 52 cells; details: for binding after 10 minutes compared to 30 minutes incubation: 125I-labeled peptides; for binding capacity on SKRC 52 cells compared to the native CaIX-P1 peptide: 125I-labeled fragments, result in words
Description: (§1) For binding experiments 5×10^5 SKRC 52 or BxPC3 cells were seeded into 6-well plates and cultivated in 3 mL of incubation medium at 37°C for 24 h. After cell blocking with RPMI 1640 (without FCS) containing 1% BSA, the medium was replaced with 1 mL of fresh medium (without FCS) containing 0.8–1.2×10^6 cpm of ^125I-labeled peptide and incubation was performed for time periods varying from 10 min to 2 h at 37°C. To determine specific versus nonspecific binding, the cells were incubated with unlabeled competitors at concentrations varying from 10^−4 to 10^−10 mol/L. Octreotide was used as negative control competitor. After incubation the medium was removed and the cells were washed three times with 1 mL ice cold PBS in order to remove the unbound radiolabeled peptide. Subsequently, the cells were lysed with 0.5 mL NaOH 0.3 mol/L and the radioactivity was measured with a γ-counter. Bound radioactivity was calculated as percentage applied dose per 10^6 cells. CA IX negative BxPC3 cells were used as negative control.

SKRC 52 cells [2] = assay type: binding, human; details: for inhibition of the radioligand binding: 10^−4 mol/L competitor concentration; for inhibition of the radioligand binding / binding inhibition: 125I-CaIX-P1-4-10 on SKRC 52 cells; for binding inhibition: competitor concentration of 10^−5 mol/L
Description: as §1

SKRC 52 cells [3] = test: In vitro (medium) stability of 125I-labeled peptide on SKRC 52 cells; assay type: in vitro ADME, human
Description: (§2) Radio-HPLC was performed on an Agilent 1100 HPLC system equipped with a radioactivity detector (GABI Star, Raytest GmbH, Straubenhardt, Germany) using a Chromolith Performance RP-18e column (100×3 mm; Merck AG Darmstadt, Germany) eluted with a linear gradient (eluent A: 0.1% TFA in water; eluent B: 0.1% TFA in acetonitrile; 0–30% B in 10 min, flow rate: 2 mL/min).
(§3) ^125I-labeled peptide was incubated at 37°C on SKRC 52 and BxPC3 cells. At time points varying from 10 min to 2 h aliquots were taken and centrifuged for 5 min at 13,000 rpm. The supernatant was analyzed by HPLC with H2O∶CH3CN, 0–30% in 10 min.

BxPC3 cells = test: In vitro (medium) stability of 125I-labeled peptide on BxPC3 cells; assay type: in vitro ADME, human; details: 37°C, 10 min to 2 h, supernatant by radio-HPLC
Description: as §2, §3

Serum stability assay = assay type: in vitro ADME; details: radiolabeled peptide 5 MBq in 500 µL human serum (Sigma Aldrich, H4522), 37°C, aliquots by radio-HPLC
Description: as §2
Metabolic stability was investigated in human serum (Sigma Aldrich, H4522). 5 MBq of radiolabeled peptide was dissolved in human serum (500 µL) and incubated at 37°C. The stability of the labeled peptide was monitored by analyzing aliquots (25 µl) via radio-HPLC at selected time points.

in vivo = test: in vivo; set-up: species or system Balb/c nu/nu mice; details: female, Balb/c nu/nu, mouse, iv, 1 MBq, total radioactivity, Tumor to organ ratio
Description: Organ distribution studies were performed in 9-week-old female Balb/c nu/nu mice, carrying subcutaneously transplanted SKRC 52 tumors. Animals were obtained from Charles River WIGA and housed in VentiRacks (BioZone Global). For tumor transplantation, SKRC 52 cells were grown to 90% confluence, harvested with PBS/ethylene diamine tetraacetic acid, resuspended in Falcon Matrigel-Matrix (BD) and kept on ice. 200 µl of Matrigel-Matrix cell suspension were injected subcutaneously into the anterior region of the mouse trunk and the tumors were grown to a size of 1.0 cm^3. ^131I-labeled CaIX-P1-4-10 was injected into the tail vein of the animals (approximately 1 MBq) and at 15 min, 60 min and 240 min after injection the animals were sacrificed. Tumor, blood and selected tissues (heart, spleen, liver, kidney, muscle, intestinum and brain) were removed, drained of blood, weighed and the radioactivity was measured in a γ-counter (LB 951G; Berthold Technologies). Also 3 aliquots of the tracer solution used for injection were measured. The organ uptake was calculated as percentage injected dose per gram tissue (% ID/g).

Which “binding after 10 minutes compared to 30 minutes incubation” value [1] does the source give for YNTNHVPLSPKY [CaIX-P1] here?
The value was “higher after 10 minutes as compared to 30 minutes incubation”.

And the “inhibition of the radioligand binding” value (SKRC 52 cells [2])?
Its value is “over 95%”.

And the binding inhibition (SKRC 52 cells [2])?
The binding inhibition was “about 80%”.

What about the IC50 (SKRC 52 cells [2]; unlabeled competitor against 125I-CaIX-P1-4-10 on SKRC 52 cells, read-out: IC50) of the same compound?
Its IC50 is 1500 nM.

Which “binding capacity on SKRC 52 cells compared to the native CaIX-P1 peptide” value [1] does the source give for `CC(C)C[C@H](NC(=O)[C@@H]1CCCN1C(=O)[C@@H](NC(=O)[C@H](Cc1c[nH]cn1)NC(=O)[C@@H](N)CC(N)=O)C(C)C)C(=O)N[C@@H](CO)C(=O)N1CCC[C@H]1C(=O)N[C@H](Cc1ccc(O)cc1)C(N)=O` [CaIX-P1-4-10] (HELM PEPTIDE1{N.H.V.P.L.S.P.[dY].[am]}$$$$V2.0; N-terminus assumed) here?
The value was “almost six-fold binding”.

And the “inhibition of the radioligand binding” value (SKRC 52 cells [2])?
The value was “over 95%”.

And the IC50 (SKRC 52 cells [2]; 24 h)?
The IC50 was 130 nM.

What about the binding inhibition (SKRC 52 cells [2]) of the same compound?
Its binding inhibition is “about 95%”.

What about the “degradation in medium at 120 min” value (SKRC 52 cells [3]; 125I-labeled peptide on SKRC 52 cells, 37°C, 120 min incubation, supernatant by radio-HPLC) of the same compound?
Its value is “completely degraded”.

What about the “activity (intact radioligand) measured in medium” value (SKRC 52 cells [3]; 125I-labeled peptide on SKRC 52 cells, 37°C, after 60 min incubation, supernatant by radio-HPLC) of the same compound?
The value was 30%.

What about the “degradation site in the sequence” value (SKRC 52 cells [3]; comparison of HPLC chromatograms of C-terminal fragments with SKRC 52 cell medium supernatants) of the same compound?
Its value is “degraded between ^6S and ^7P”.

And the “radioligand degradation in medium on BxPC3 cells” value (BxPC3 cells)?
The value was “No radioligand degradation”.

And the Serum half life (Serum stability assay)?
Its Serum half life is 1.5 h.

For “YNTNHVPL [CaIX-P1-1-8, 8-amino acid fragment of CaIX-P1 (YNTNHVPL)]”, which “binding capacity on SKRC 52 cells compared to the native CaIX-P1 peptide” value [1] is on record?
The value was “significantly reduced binding activity”.

For HVPLSPKy [CaIX-P1-5-12], which “binding capacity on SKRC 52 cells compared to the native CaIX-P1 peptide” value [1] is on record?
The value was “significantly reduced binding activity”.

Which “binding capacity on SKRC 52 cells compared to the native CaIX-P1 peptide” value [1] does the source give for “TNHVPLSPy [CaIX-P1-3-10, fragment representing the middle part of CaIX-P1 (TNHVPLSPy)]” here?
Its value is “up to five-fold higher binding capacity”.

And the “binding after 10 minutes compared to 30 minutes incubation” value [1]?
Its value is “higher after 10 minutes as compared to 30 minutes incubation”.

With `CC(C)C[C@H](NC(=O)[C@@H]1CCCN1C(=O)[C@@H](NC(=O)[C@H](Cc1c[nH]cn1)NC(=O)[C@@H](N)CC(N)=O)C(C)C)C(=O)N[C@@H](CO)C(=O)N1CCC[C@H]1C(=O)N[C@H](Cc1ccc(O)c(I)c1)C(N)=O` [^131I-CaIX-P1-4-10] (HELM PEPTIDE1{N.H.V.P.L.S.P.[O=C([C@@H](Cc1ccc(O)c(I)c1)N[*:1])[*:2]].[am]}$$$$V2.0; N-terminus assumed) as the compound, how does the tissue to tissue ratio at 0.25 h (in vivo; Blood) read?
The tissue to tissue ratio at 0.25 h was 0.63.

And the tissue to tissue ratio at 1 h (in vivo; Blood)?
Its tissue to tissue ratio at 1 h is 0.69.

And the tissue to tissue ratio at 4 h (in vivo; Blood)?
Its tissue to tissue ratio at 4 h is 0.67.

What about the tissue to tissue ratio at 0.25 h (in vivo; Brain) of the same compound?
Its tissue to tissue ratio at 0.25 h is 13.9.

What about the tissue to tissue ratio at 1 h (in vivo; Brain) of the same compound?
The tissue to tissue ratio at 1 h was 14.9.

What about the tissue to tissue ratio at 4 h (in vivo; Brain) of the same compound?
Its tissue to tissue ratio at 4 h is 15.1.

What about the tissue to tissue ratio at 0.25 h (in vivo; Heart) of the same compound?
The tissue to tissue ratio at 0.25 h was 1.63.

What about the tissue to tissue ratio at 1 h (in vivo; Heart) of the same compound?
Its tissue to tissue ratio at 1 h is 2.09.

And the tissue to tissue ratio at 4 h (in vivo; Heart)?
Its tissue to tissue ratio at 4 h is 1.84.

What about the tissue to tissue ratio at 0.25 h (in vivo; Kidney) of the same compound?
The tissue to tissue ratio at 0.25 h was 0.56.

And the tissue to tissue ratio at 1 h (in vivo; Kidney)?
The tissue to tissue ratio at 1 h was 0.73.

What about the tissue to tissue ratio at 4 h (in vivo; Kidney) of the same compound?
Its tissue to tissue ratio at 4 h is 0.61.

What about the tissue to tissue ratio at 0.25 h (in vivo; Liver) of the same compound?
Its tissue to tissue ratio at 0.25 h is 1.32.

What about the tissue to tissue ratio at 1 h (in vivo; Liver) of the same compound?
The tissue to tissue ratio at 1 h was 1.65.

And the tissue to tissue ratio at 4 h (in vivo; Liver)?
Its tissue to tissue ratio at 4 h is 1.49.

What about the tissue to tissue ratio at 0.25 h (in vivo; Lung) of the same compound?
Its tissue to tissue ratio at 0.25 h is 0.86.

And the tissue to tissue ratio at 1 h (in vivo; Lung)?
Its tissue to tissue ratio at 1 h is 0.88.

And the tissue to tissue ratio at 4 h (in vivo; Lung)?
Its tissue to tissue ratio at 4 h is 0.92.

And the tissue to tissue ratio at 0.25 h (in vivo; Muscle)?
The tissue to tissue ratio at 0.25 h was 3.36.

What about the tissue to tissue ratio at 1 h (in vivo; Muscle) of the same compound?
Its tissue to tissue ratio at 1 h is 3.39.

And the tissue to tissue ratio at 4 h (in vivo; Muscle)?
The tissue to tissue ratio at 4 h was 2.53.

And the tissue to tissue ratio at 0.25 h (in vivo; Spleen)?
Its tissue to tissue ratio at 0.25 h is 1.06.

And the tissue to tissue ratio at 1 h (in vivo; Spleen)?
Its tissue to tissue ratio at 1 h is 1.39.

And the tissue to tissue ratio at 4 h (in vivo; Spleen)?
Its tissue to tissue ratio at 4 h is 1.35.
